Assay results published in patent US20240158357A1, “NOVEL QUINAZOLINONES THAT INHIBIT THE FORMATION OF TAU OLIGOMERS AND THEIR METHOD OF USE” (OLIGOMERIX INC., priority 2019, published 2024).
“Also recorded” adds a separate entry of the source. Structures can show the parent of a compound that is named as a salt.

Experiments:
[1] = biological target: T1, recombinant human tau 4R2N (Homo sapiens (Human), UniProt P10636); experiment: AlphaLisa Assay (ALA), primary screen for inhibition of tau oligomer formation; format: biochemical; details: tau target 300 nM, 4 hours room temperature, compound 0.098 uM-50 uM
Description: (§1) Bacterial recombinant human tau 4R2N (the largest isoform of tau in the central nervous system, 441 amino acids in length, Seq. ID 1) constructs with either 6X-His or StrepII N-terminal epitope tags were purified from bacterial lysate using denaturing conditions to prepare tau in its monomeric form.
ALA Assay: AlphaLisa Assay (ALA) was used as a primary screen for identifying compounds that inhibit tau oligomer formation. It is a bead based assay that only gives signal when the beads are in close proximity to each other. When the tau monomer (target) is incubated it forms higher order aggregates (dimer, trimer, tetramer, etc) so that when the donor and acceptor beads bind to the epitope tags of tau they are in close proximity and generate signal.
Tau target (equal mixture of each construct at 300 nM) was prepared in buffer (Tris-HCl pH 7.4) and was incubated in 96-well plates at room temperature for 4 hours with vehicle control (DMSO) and a dose range of a compound of the disclosure (0.098 uM-50 uM). AlphaLisa acceptor heads & donor beads with ligands to the epitope tags (Perkin Elmer) were diluted (final 20 ug/mL per bead) in bead buffer (25 mM HEPES pH 7.4, 100 mM NaCl, 0.1% Tween-20), added to the wells and incubated 1 hour at room temperature. The positive control (non-incubated target) & blank (no tau) were prepared and mixed with beads in bead buffer and the plate was read immediately using the EnVision plate reader (Perkin Elmer).

[2] = biological target: T1, recombinant human tau 4R2N; experiment: Confirmatory Assay (CONFA), SDS-PAGE quantification of tau monomer and oligomers; format: biochemical; details: tau target 300 nM, 3 hours room temperature, compound 0.098 uM-50 uM
Description: as §1
CONFA Assay: Confirmatory Assay (CONFA) used as a secondary screen for confirming the mechanism of action of compounds identified as hits using the ALA assay. The assay is performed using a similar procedure as ALA except that it utilizes SDS-PAGE for visualization and quantification of tau monomer and aggregated species (dimer, trimer, tetramer, pentamer, etc.). Only a single construct of tau without epitope tags is necessary, but the assay can use the same target prepared for the ALA assay also.
For the CONFA assay, Tau target (300 nM) was prepared in buffer (Tris-HCl pH 7.4) and was incubated at room temperature for 3 hours with vehicle control (DMSO) and a dose range of a compound of the disclosure (0.098 uM-50 uM). Samples were mixed with an equal volume of 2×SDS sample buffer (4% SDS, 20% glycerol, 0.004% bromphenol blue, 125 mM Tris HCl, pH 7.0) to resolve tau monomer and disulfide-linked oligomers on 4-20% gradient polyacrylamide gels (Biorad) along with positive control (non-oligomerized tau target). The gels were stained with Oriole Fluorescent Gel Stain (BioRad) and imaged using the FluorChem R system (Protein Simple). AlphaView software (Protein Simple) was used for quantification of tau monomer and oligomers.

[3] = system: insoluble tau aggregates in the brains of htau mice; experiment: htau mouse study, insoluble tau in cortex (mAb DA31); format: in vivo
Description: (§2) Four groups of htau mice (n=25 per group) were treated from 2.5 to 6.5 months of age with 0, 10, 40 and 100 mg/kg of compound TO-0582 milled into feed. The study was performed independently and blinded. The primary endpoint of the study was reduction of insoluble tau aggregates in the brains of the mice with statistical significance. […] Methods for biochemical analyses of tau used in this study have been previously described (Acker C M et al. Sensitive quantitative assays for tau and phospho-tau in transgenic mouse models. Neurobiol Aging. 2013. 34:338). The results in FIG. 1 show in vivo efficacy of the compound in reducing tau pathology. Levels of insoluble tau in the cortices of htau mice treated with compound TO-0582 (example 21) were determined using the pan-tau monoclonal antibody (mAb) DA31. These values were normalized to total tau in the lysates of the cortex of each mouse. Error bars indicate standard error of the mean. The P values of comparisons of the groups treated with 10, 40 or 100 mg/kg TO-0582 to the control group (white bar, 0 mg/kg) are 0.0503 (horizontal hatch bar, 10 mg/kg), 0.0154 (diagonal hatch bar, 40 mg/kg) and 0.0488 (vertical hatch bar, 100 mg/kg). * indicates P value <0.05.

htau mice = experiment: htau mouse study, tolerability; format: in vivo; details: all doses (10, 40, 100 mg/kg in feed)
Description: as §2

T1 sequence (P10636 other isoform, or with tags, fused parts or gaps): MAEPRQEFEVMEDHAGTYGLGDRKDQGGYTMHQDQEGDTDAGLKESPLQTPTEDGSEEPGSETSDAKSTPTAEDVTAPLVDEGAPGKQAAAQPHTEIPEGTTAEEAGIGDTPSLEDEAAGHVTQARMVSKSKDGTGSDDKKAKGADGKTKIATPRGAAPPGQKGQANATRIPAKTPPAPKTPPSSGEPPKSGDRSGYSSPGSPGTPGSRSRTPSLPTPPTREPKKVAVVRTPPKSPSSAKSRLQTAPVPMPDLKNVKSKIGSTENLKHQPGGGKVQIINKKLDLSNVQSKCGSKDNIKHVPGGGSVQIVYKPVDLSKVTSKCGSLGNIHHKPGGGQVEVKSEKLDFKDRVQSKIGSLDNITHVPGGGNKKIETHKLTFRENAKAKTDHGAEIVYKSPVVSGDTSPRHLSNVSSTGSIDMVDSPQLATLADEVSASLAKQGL

IC50 [1] | IC50 [2] | Compound | other results
9.93 µM | 8.94 µM | O=c1c2ccccc2nc(-c2cccnc2)n1CCCCO [Ex. 3, 3-(4-Hydroxybutyl)-2-(pyridin-3-yl)quinazolin-4(3H)-one hydrochloride] | –
7.8 µM | 3.19 µM | O=c1c2ccccc2nc(-c2cccnc2)n1-c1cccc(OCc2ccccc2)c1 [Ex. 4, 3-(3-(Benzyloxy)phenyl)-2-(pyridin-3-yl)quinazolin-4(3H)-one hydrochloride] | –
– | 59.2 µM | O=c1[nH]c(-c2cccnc2)nc2cnccc12 [Ex. 6, 2-(Pyridin-3-yl)pyrido[3,4-d]pyrimidin-4(3H)-one dihydrochloride] | –
9.6 µM | 12.1 µM | CN1CC(C(=O)Nc2ccc(-c3nc4ccccc4c(=O)n3-c3cccnc3)cc2)C1 [Ex. 7, N-(4-(3,4-Dihydro-4-oxo-3-(pyridin-3-yl)quinazolin-2-yl)phenyl)-1-methylazetidine-3-carboxamide dihydrochloride] | –
6.89 µM | 62.4 µM | CN1CC(C(=O)Nc2ccc(-c3nc4ccsc4c(=O)[nH]3)cc2)C1 [Ex. 9, N-(4-(3,4-Dihydro-4-oxothieno[3,2-d]pyrimidin-2-yl)phenyl)-1-methyl azetidine-3-carboxamide hydrochloride] | –
26.3 µM | – | O=c1c2sccc2nc(-c2cccnc2)n1-c1cccnc1 [Ex. 10, 2,3-Di(pyridin-3-yl)thieno[3,2-d]pyrimidin-4(3H)-one] | –
17.1 µM | 57 µM | Cc1ccc(-n2c(-c3cccnc3)nc3ccsc3c2=O)cc1O [Ex. 11, 3-(3-Hydroxy-4-methylphenyl)-2-(pyridin-3-yl)thieno[3,2-d]pyrimidin-4(3H)-one] | –
13.6 µM | – | COc1ccc(-n2c(-c3ccc(NC(C)=O)cc3)nc3ccsc3c2=O)cn1 [Ex. 13, N-(4-(3,4-Dihydro-3-(6-methoxypyridin-3-yl)-4-oxothieno[3,2-d]pyrimidin-2-yl)phenyl)acetamide] | –
6.25 µM | 22.3 µM | COc1ccc(-n2c(-c3cccnc3)nc3ccsc3c2=O)cn1 [Ex. 14, 3-(6-Methoxypyridin-3-yl)-2-(pyridin-3-yl)thieno[3,2-d]pyrimidin-4(3H)-one dihydrochloride] | –
3.72 µM | 7.6 µM | O=c1[nH]c(-c2cccnc2)nc2ccsc12 [Ex. 15, 2-(pyridin-3-yl)thieno[3,2-d]pyrimidin-4(3H)-one] | –
4.53 µM | 1.7 µM | CCc1ccc(-n2c(-c3ccc(NC(C)=O)cc3)nc3ccsc3c2=O)cc1O [Ex. 16, N-(4-(3-(4-ethyl-3-hydroxyphenyl)-4-oxo-3,4-dihydrothieno[3,2-d]pyrimidin-2-yl)phenyl)acetamide] | –
8.05 µM | – | CCc1ccc2cc(-n3c(-c4cccnc4)nc4ccccc4c3=O)ccc2c1 [Ex. 19, 3-(2-Ethylnaphthalen-6-yl)-2-(pyridine-3-yl)quinazolin-4(3H)-one] | –

Compound | IC50 [1] | IC50 [2] | other results
O=c1c2ccccc2nc(-c2cccnc2)n1-c1ccc(Cl)c(O)c1 [Ex. 2, 3-(4-Chloro-3-hydroxyphenyl)-2-(pyridin-3-yl)quinazolin-4(3H)-one hydrochloride] | 5.78 µM | 31.9 µM | –
CCc1ccc(-n2c(-c3cccnc3)nc3ccccc3c2=O)cc1F [Ex. 17, 3-(3-Fluoro-4-ethylphenyl)-2-(pyridine-3-yl)quinazolin-4(3H)-one] | 24.1 µM | – | –
CCc1ccc(-n2c(-c3cccnc3)nc3ccccc3c2=O)cc1Br [Ex. 18, 3-(3-Bromo-4-ethylphenyl)-2-(pyridine-3-yl)quinazolin-4(3H)-one] | 4.5 µM | – | –
Cc1ccc(-n2c(-c3cccnc3)nc3ccccc3c2=O)cc1O [Ex. 20, 3-(4-Methyl-3-hydroxyphenyl)-2-(pyridin-3-yl)quinazolin-4(3H)-one hydrochloride] | 1.9 µM | 4.18 µM | –
O=c1c2ccccc2nc(-c2cccnc2)n1-c1cccc(O)c1 [Ex. 21, 3-(3-Hydroxyphenyl)-2-(pyridin-3-yl)quinazolin-4(3H)-one hydrochloride] | 5.14 µM | 5.67 µM | reduction of insoluble tau, statistical significance ([3]; 40 mg/kg and 100 mg/kg doses, male htau mice): achieved with statistical significance; reduction of insoluble tau aggregates in the brains ([3]; htau mice, 10, 40 and 100 mg/kg milled into feed, 2.5 to 6.5 months of age, listed as TO-0582, hydrochloride): reduced insoluble tau at all doses; also recorded: achieved with statistical significance; tolerability over the course of the study (htau mice): well tolerated; toxic effects on weight, behavior or morbidity (htau mice): did not cause toxic effects
